Active and inactive are the calls of the source.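 Rule for the calls: active = IC50 under a set limit, which marks the compound as nonspecific in this counterscreen; inactive = the rest.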
Target: SaOS-2 dox-inducible full-length luciferase, luminescence counterscreen
Test: luminescence decrease from intact luciferase reporter – cell-based, SaOS-2, dox-inducible, counter-screen for Mdm2/MdmX interaction inhibitor project, dose response (AID 504609)

| IC50 | SMILES |
| --- | --- |
| 1.57 µM | O=C(CN1CCCc2ccccc21)N/N=C/c1c(O)ccc2ccccc12 |
| 3.58 µM | Cc1cccn2c(=O)c3cc(C(=O)NCCc4ccccc4)c(=N)n(Cc4ccco4)c3nc12 |
| 5.78 µM | CC(=O)c1ccc(-c2ccc(C(=O)Nc3nc(-c4ccccn4)cs3)o2)cc1 |
| 2.67 µM | O=[N+]([O-])c1ccccc1S(=O)(=O)Nc1cccc2cccnc12 |
| 2.41 µM | CCOC(=O)/C=C/C(=O)OCC(=O)NC(c1ccccc1)c1ccccc1 |
| 5.16 µM | CCN(CC)S(=O)(=O)c1ccc(NC(=O)c2cccnc2Cl)c(NC(=O)c2cccnc2Cl)c1 |
| 2.38 µM | O=c1oc2ccccc2cc1-c1cn(-c2ccccc2)c(=S)[nH]1 |
| 11.5 µM | C/C(=N\Nc1cc(C)nc(-c2ccccc2O)n1)c1ccccc1O |

Continued, compound first:

| SMILES | IC50 |
| --- | --- |
| COCCn1c(C)cc(C2=NNC(=Nc3ccccc3F)SC2)c1C | 0.137 µM |
| CC1(C)C(=O)Nc2ccccc2N1C(=O)Cn1ncc(Cl)c(Cl)c1=O | 8.88 µM |
| CCOC(=O)c1ccc(Nc2nc(N)c3cc(OC)c(OC)cc3n2)cc1 | > 79 µM (inactive) |
| O=C(/C=C/c1c(F)cccc1Cl)c1ccc(O)cc1 | 6.23 µM |
| Cc1nc(NC2=NCN(CCCN3CCOCC3)CN2)nc2c(C)cccc12 | 13.8 µM |
| COc1ccc(-c2cc3c(=O)n(CC(=O)NCCCN4CCC(N5CCCCC5)CC4)nc(C)n3n2)cc1 | 15.5 µM |
| CCOc1cc(N2CCOCC2)c(OCC)cc1NC(=O)COc1cccc2cccnc12 | 12.5 µM |
| CC(C)c1cccc(O)c(=O)c1 | 2.27 µM |
| COc1cc(-c2nc(-c3ccc(NC(=O)c4ccc5c(c4)OCO5)cc3)no2)cc(OC)c1OC | 3.87 µM |
| CCN1C/C(=C/c2ccc(OC)c(O)c2)C(=O)/C(=C/c2ccc(OC)c(O)c2)C1 | 7.64 µM |
| COc1ccc2c(c1)C1(Nc3ccccc3-c3nc4ccccc4n31)C(=O)N2C (stereo not given) | 1.75 µM |
| Cn1nc([N+](=O)[O-])nc1Sc1nnc(-c2ccccc2)o1 | 7.44 µM |

From PubChem BioAssay AID504609 (Sanford-Burnham Center for Chemical Genomics, 2011)
